Measured values published in ChEMBL document CHEMBL3046941, “Synthesis of novel isoxazolines via 1,3-dipolar cycloaddition and evaluation of anti-stress activity” (2011).

Tests used:
Assay type in all cases: functional
[1] = tested on: Rattus norvegicus; test: Antistress activity in Rattus norvegicus Sprague-Dawley (rat) assessed as inhibition of acute stress-induced increase in corticosterone level at 40 mg/kg, po (reference value: 465.7 +/- 15.77 ng/ml)
[2] = tested on: Rattus norvegicus; test: Antistress activity in Rattus norvegicus Sprague-Dawley (rat) assessed as inhibition of acute stress-induced plasma creatinine kinase activity at 40 mg/kg, po (reference value: 1115 +/- 29.43 IU/dl)
[3] = tested on: Rattus norvegicus; test: Antistress activity in Rattus norvegicus Sprague-Dawley (rat) assessed as inhibition of acute stress-induced hyperglycemia measured as glucose level at 40 mg/kg, po (reference value: 134.7 +/- 4.68 mg/dl)
[4] = tested on: Rattus norvegicus; test: Antistress activity in Rattus norvegicus Sprague-Dawley (rat) assessed as inhibition of acute stress-induced adrenal hypertrophy measured as adrenal gland weight per 100 g of body weight at 40 mg/kg, po (reference value: 10.20 +/- 0.69 mg)

SMILES | Activity [1] | Activity [2] | Activity [3] | Activity [4]
COc1ccc(C2=NOC(Cc3ccc(OCCN4CCCCC4)c(OC)c3)C2)c(OC)c1 (stereo unspecified) | 320 ng/mL | 733.8 IU/dl | 101.7 mg/dL | 7.6 mg
COc1cc(CC2CC(c3cccc4ccccc34)=NO2)ccc1OCc1ccccc1 (stereo unspecified) | 444.7 ng/mL | 994.5 IU/dl | 116.3 mg/dL | 9.6 mg
COc1ccc(C2=NOC(Cc3ccc(OC(C)=O)c(OC)c3)C2)c(OC)c1 (stereo unspecified) | 364.2 ng/mL | 766.71 IU/dl | 107.2 mg/dL | 7.01 mg
COc1cc(CC2CC(c3cccc4ccccc34)=NO2)ccc1OCCN1CCCC1 (stereo unspecified) | 421 ng/mL | 1074 IU/dl | 125 mg/dL | 10.58 mg
CCOc1ccc(CC2CC(c3ccc(OC)cc3OC)=NO2)cc1OC (stereo unspecified) | 275.5 ng/mL | 729.7 IU/dl | 93 mg/dL | 7.82 mg
COc1ccc(C2=NOC(Cc3ccc(O)c(OC)c3)C2)c(OC)c1 (stereo unspecified) | 432.2 ng/mL | 1004 IU/dl | 112 mg/dL | 9.31 mg
CCOc1ccc(CC2CC(c3cccc4ccccc34)=NO2)cc1OC (stereo unspecified) | 292.3 ng/mL | 625.7 IU/dl | 72.83 mg/dL | 7.89 mg
COc1cc(CC2CC(c3cccc4ccccc34)=NO2)ccc1OC(C)=O (stereo unspecified) | 311.8 ng/mL | 673 IU/dl | 74.67 mg/dL | 7.77 mg
COc1ccc(C2=NOC(Cc3ccc(OCc4ccccc4)c(OC)c3)C2)c(OC)c1 (stereo unspecified) | 354.8 ng/mL | 664.3 IU/dl | 80.5 mg/dL | 8.01 mg
COc1ccc(CC2CC(c3cccc4ccccc34)=NO2)cc1OC (stereo unspecified) | 293.5 ng/mL | 590 IU/dl | 109.51 mg/dL | 7.54 mg
COc1cc(CC2CC(c3cccc4ccccc34)=NO2)ccc1O (stereo unspecified) | 417.2 ng/mL | 998.5 IU/dl | 86.24 mg/dL | 9.86 mg
COc1ccc(C2=NOC(Cc3ccc(OCCN4CCCC4)c(OC)c3)C2)c(OC)c1 (stereo unspecified) | 429.8 ng/mL | 934.7 IU/dl | 127 mg/dL | 9.82 mg
COc1cc(CC2CC(c3cccc4ccccc34)=NO2)ccc1OCCN1CCCCC1 (stereo unspecified) | 282.5 ng/mL | 603.7 IU/dl | 78.17 mg/dL | 7.23 mg
COc1ccc(C2=NOC(Cc3ccc(OC)c(OC)c3)C2)c(OC)c1 (stereo unspecified) | 446 ng/mL | 1092 IU/dl | 122 mg/dL | 9.63 mg
